The nature of this series: xn = mol fraction of the nth substance listed. The conditions noted are these: 273.15 K, 111 kPa, Fluid (supercritical or subcritical phases), Flux Response Technology (based on capillary viscometry).

Data on two compounds can be found in the NIST ThermoML archive (doi:10.1016/j.fluid.2006.11.004).

± gives the expanded uncertainty stated by the source.

As to `O=C=O` [carbon dioxide] + FC(F)(Cl)Cl, the excess molar volume (x1 = 1) is 0 ± 1e-07 m3/mol.
Consider `FC(F)(Cl)Cl` [dichlorodifluoromethane] + O=C=O, for which the excess molar volume is, setting by setting: (x2 = 0) 0 ± 1e-07 m3/mol; (x2 = 0.0001) 0 ± 1e-07 m3/mol; (x2 = 0.113) 3.11e-05 ± 4.4e-06 m3/mol; (x2 = 0.236) 4.65e-05 ± 6.5e-06 m3/mol; (x2 = 0.362) 5.16e-05 ± 7.2e-06 m3/mol; (x2 = 0.48) 5.54e-05 ± 7.8e-06 m3/mol. In addition, the excess molar volume runs as follows: (x2 = 0.482) 4.91e-05 ± 6.9e-06 m3/mol; (x2 = 0.56) 5.6e-05 ± 7.8e-06 m3/mol; (x2 = 0.561) 5.24e-05 ± 7.3e-06 m3/mol; (x2 = 0.6) 5.03e-05 ± 7e-06 m3/mol; (x2 = 0.715) 5.03e-05 ± 7e-06 m3/mol; (x2 = 0.833) 3.21e-05 ± 4.5e-06 m3/mol.
